# Source: patent US7550469B2, “Heterocyclic amide derivatives and their use as dopamine D3 receptor ligands” (Aventis Pharmaceuticals Inc., priority 2001, dated 2009)
# Where two headings read alike, the source gives them in different places.
# Legend:
# [1] = biological target: Alpha-1 adrenergic receptors from rat brain cortex; test: [3H]Prazosin binding to alpha-1 adrenergic receptors from rat brain cortex (Protocol 4); settings: rat α-1; read-out: rat alpha 1 Ki
# Excerpt: [^3H]Prazosin Binding to Alpha-1 Adrenergic Receptors from Rat Brain Cortex
# Objective: This in vitro assay is designed as a screen to identify compounds displaying a affinity for the a, adrenoceptor subtype in membranes from rat cortex. It measures the ability of the test compounds to displace [^3H]prazosin from the α1 sites.
# Membrane Preparation: Rat brain tissue can be obtained from either fresh (male Wistar rats; 200-250 g) or frozen (male Sprague-Dawley 200-250 g from Harlan; cat. #BT-403) stocks. The cortex is dissected, homogenized in 50 vol (wet weight) ice-cold 50 mM Tris buffer (pH 7.7 at 25° C.). The homogenate is centrifuged at 48,000 g for 10 min, the pellet is resuspended in 50 mM Tris buffer and centrifuged a second time. The second pellet (P2) is resuspended to yield a concentration of 115 mg wet weight per 10 ml. […] Membranes should be mixed just before addition to ensure an even suspension. […] This is diluted to a 0.5 mM stock in dH2O. Serial dilutions in Buffer A are made from which 50 μl additions to the plate are made in duplicate in order to achieve the final concentrations desired. Typically, one 96 well plate is used to evaluate 11 compounds at 4 concentrations (10^−6-10^−9 M) in duplicate. Total binding and nonspecific binding are determined in quadruplicate. Usually one standard is run with each assay. • [^3H]Prazosin is made up in Buffer A such that when 50 μl are added per well the final concentration is […] in a final assay volume of 200 μl. The final concentration should be verified by running a sample in a scintillation counter prior to adding the [^3H]prazosin to the 96 well plate. Note: The radioactivity should be prepared just before the additions are made so that it is not allowed to sit on the bench for very long. • Packard GF/B Plate Pretreatment: The filter plates are presoaked for at least 30 min in ice cold Buffer B containing 0.05% polyethyleneimine (200 μl/200 ml) to maximize filtration efficiency and minimize filter blank binding. • Incubation & Filtration: Once buffer, compounds, [^3H]prazosin and membrane have been added (and mixed), the 96 well plates are incubated for 40 min at 37° C. and spaced 3-5 min apart. At 40 min, the plates are filtered using a Tomtec Automated Cell Harvester. Filtration is immediately followed by washes of ice cold Buffer B (total vol. ˜7 ml). • Drying and Counting: Each filter plate is dried under a heat lamp for 15 min. The back of the plate is sealed and 40 μl of Packard microscint fluid are added per well. Using Packard film, each plate is heat sealed prior to being counted in a Packard Topcount Scintillation counter. A program has been written that counts each plate twice sending DPM, CPM and TSIS data to disk and printer. • Analysis of Results: Raw DPM and CPM data are captured on disk and are imported into one of several software packages (Graphpad Prism Ver 2.0, Excel) residing on the LAN. Specific binding is defined as the difference between total binding and the binding in the presence of 10 μM phentolamine. Total binding is less than 10% of the total added ligand. Software using one-site competition curve analysis is employed in the calculation of IC50 and KI (Cheng-Prusoff equation, 1973). The top and bottom of the non-linear regression are held constant at 0% and 100% inhibition. The percent inhibition at each drug concentration is the mean of duplicate determinations.
# [2] = biological target: T1, cloned human dopamine D3 receptors (Homo sapiens, UniProt P35462); test: [N-Methyl-3H]Spiroperidol binding to cloned human dopamine D3 receptors (Protocol 1)
# T1 construct: expressed in transfected cells; membrane homogenate
# T1 sequence (P35462 whole entry): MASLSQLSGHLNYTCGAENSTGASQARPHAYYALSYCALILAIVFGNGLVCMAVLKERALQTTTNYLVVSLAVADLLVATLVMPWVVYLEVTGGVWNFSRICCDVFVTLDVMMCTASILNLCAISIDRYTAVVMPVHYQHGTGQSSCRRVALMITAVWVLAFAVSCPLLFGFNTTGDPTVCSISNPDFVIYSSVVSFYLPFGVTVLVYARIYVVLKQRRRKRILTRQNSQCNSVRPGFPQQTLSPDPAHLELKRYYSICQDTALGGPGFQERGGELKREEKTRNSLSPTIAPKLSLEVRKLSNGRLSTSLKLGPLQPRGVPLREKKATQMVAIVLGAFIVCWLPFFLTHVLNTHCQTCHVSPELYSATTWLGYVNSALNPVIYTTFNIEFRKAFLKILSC
# How it was run: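 Radioligand displacement with [N-methyl-3H]spiroperidol used a physiological-salt Tris buffer (0.05 M, pH 7.7; NaCl 120 mM, KCl 5 mM, CaCl2 2 mM, MgCl2 1 mM) and membranes of a high-expressing stable CHO clone carrying human D3. Total ligand concentration came from measured added CPM; 0.1% ascorbic acid was optional for oxidizable compounds.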
# [3] = the 16th table, read-out: D3 Ki
# [4] = the 15th table, read-out: D3 Ki
# [5] = the 18th table, read-out: D3 Ki
# [6] = the 19th table, read-out: D3 Ki
# [7] = the 13th table, unit inferred, read-out: D3Ki
# [8] = the 14th table, read-out: D3 Ki
# [9] = the 22nd table, read-out: D3 Ki
smiles,measurement,setting,value
O=C(NCCCCN1CCN(c2csc3cc(F)ccc23)CC1)c1ccc(F)cc1F [compound 813920],Ki,[1],0.002 µM
Nc1ccc(C(=O)NCCCCN2CCCN(c3csc4cc(F)ccc34)CC2)cc1 [compound 817258],Ki,"[2]; Table 2, read-out: D3K1",0.00313 µM
same,Ki,[2]; [3],0.00313 µM
Cc1ccc(C(=O)NCCCCN2C3CCC2CC(c2noc4cc(F)ccc24)C3)cc1 (stereo not shown) [compound 816344],Ki,[2]; [4],0.378 µM
O=C(NC/C=C/CN1CCN(c2csc3cc(C(F)(F)F)ccc23)CC1)c1cc2ccccc2s1 [compound 827728],Ki,[2]; read-out: D3K1,0.016 µM
OC(CCN1CCC(c2noc3ccsc23)CC1)CNCCc1ccccc1 (stereo not shown) [compound 831945],Ki,"[2]; the 26th table, read-out: D3 Ki",0.7 µM
O=C(NCc1sccc1CN1CCN(c2csc3cc(F)ccc23)CC1)c1cc2sccc2s1 [compound 826320],Ki,[2]; [5],0.0753 µM
O=C(NCCCCN1C2CCC1CC(c1noc3ccccc13)C2)c1ccc(-c2ccccc2)cc1 (stereo not shown) [compound 816532],Ki,[2]; [4],0.0568 µM
O=C(Nc1cccc(CN2CCN(c3csc4cc(F)ccc34)CC2)c1)c1ccc2[nH]nnc2c1 [compound 825656],Ki,[2]; [6],0.033 µM
O=C(NCCCCN1CCN(c2c(-c3ccccc3)sc3cc(F)ccc23)CC1)c1ccc(Cl)cc1 [compound 815880],Ki,"[2]; Table 2, read-out: D3K1",0.837 µM
O=C(NCCCCN1CCCN(c2csc3cc(F)ccc23)CC1)c1ccc2[nH]cnc2c1 [S977831],Ki,[2]; [7],0.00187 µM
CC(C)(C)c1ccc(S(=O)(=O)NCC2CC2CN2CCC(c3noc4ccsc34)CC2)cc1 (stereo not shown) [compound 831512],Ki,"[2]; the 24th table, read-out: D3 Ki",0.0539 µM
O=C(NCc1sccc1CN1CCN(c2csc3cc(F)ccc23)CC1)c1cccc2[nH]ccc12 [compound 826326],Ki,[2]; [5],0.071 µM
O=C(NCCCCCN1CCN(c2csc3cc(F)ccc23)CC1)c1cccc(C(F)(F)F)c1 [compound 826780],Ki,[2]; [8],0.00446 µM
COc1ccc(C(=O)NCc2ccccc2CN2CCN(c3csc4cc(F)ccc34)CC2)cc1OC [compound 822188],Ki,[2]; [6],0.14 µM
O=C(NCCCCCN1CCCN(c2csc3cc(F)ccc23)CC1)c1ccc2ccccc2c1 [S984490],Ki,[2]; [7],0.0155 µM
CC1=C(C(=O)NCc2sccc2CN2CCN(c3csc4cc(F)ccc34)CC2)Cc2ccccc21 [compound 826330],Ki,[2]; [5],0.016 µM
O=C(NCCCCN1CCCN(c2csc3cc(F)ccc23)CC1)c1ccsc1 [S977829],Ki,[2]; [7],0.00418 µM
COc1ccc2cc(C(=O)NCCCCN3CCCN(c4csc5cc(C(F)(F)F)ccc45)CC3)[nH]c2c1 [S980647],Ki,[2]; [7],0.017 µM
O=C(NC/C=C\CN1CCN(c2csc3cc(C(F)(F)F)ccc23)CC1)c1cccnc1 [compound 826336],Ki,[2]; read-out: D3K1,0.041 µM
COc1ccccc1C(=O)NCCCCN1CCN(c2n[nH]c3ccsc23)CC1 [compound 825159],Ki,[2]; [9],0.0921 µM
O=C(N[C@H](CO)CCCN1CCN(c2csc3cc(C(F)(F)F)ccc23)CC1)c1cc2ccccc2s1 [compound 815708],Ki,"[2]; Table 2, read-out: D3K1",0.18 µM
same,Ki,[2]; read-out: D3K1,0.18 µM
same,Ki,[2]; [8],0.18 µM
COc1ccc(C(=O)NCC2C(CN3CCN(c4csc5cc(C(F)(F)F)ccc45)CC3)C2(C)C)cc1OC (stereo not shown) [compound 826272],Ki,[2]; read-out: D3K1,0.062 µM
O=C(NCCCN1CCCN(c2csc3cc(F)ccc23)CC1)c1cccc(Cl)c1 [compound 827135],Ki,"[2]; Table 2, read-out: D3K1",0.141 µM
same,Ki,[2]; [3],0.141 µM
O=C(N[C@H](CO)CCCN1CCN(c2csc3cc(C(F)(F)F)ccc23)CC1)c1ccc2c(c1)S(=O)(=O)c1ccccc1C2=O [compound 815709],Ki,"[2]; Table 2, read-out: D3K1",0.124 µM
same,Ki,[2]; read-out: D3K1,0.124 µM
same,Ki,[2]; [8],0.124 µM
COc1cc(OC)cc(C(=O)NCCCCCCN2CCN(c3csc4cc(C(F)(F)F)ccc34)CC2)c1 [compound 826748],Ki,[2]; read-out: D3K1,0.0049 µM
same,Ki,[2]; [8],0.0049 µM
COc1ccccc1C(=O)NCc1sccc1CN1CCN(c2csc3cc(F)ccc23)CC1 [compound 826302],Ki,[2]; [5],0.016 µM
Nc1cc2ccccc2cc1C(=O)NCCCCN1CCCN(c2csc3cc(F)ccc23)CC1 [compound 817259],Ki,"[2]; Table 2, read-out: D3K1",0.00293 µM
same,Ki,[2]; [3],0.00293 µM
O=C(NCCCCN1CCCN(c2csc3cc(F)ccc23)CC1)c1c[nH]cn1 [S977830],Ki,[2]; [7],0.0058 µM
O=C(NC/C=C/CN1CCN(c2csc3cc(C(F)(F)F)ccc23)CC1)c1ccc(OC(F)(F)F)cc1 [compound 827726],Ki,[2]; read-out: D3K1,0.092 µM
O=C(NCc1sccc1CN1CCN(c2csc3cc(F)ccc23)CC1)c1cccs1 [compound 826295],Ki,[2]; [5],0.046 µM
O=C(NC/C=C/CN1CCN(c2csc3cc(C(F)(F)F)ccc23)CC1)c1ccsc1 [compound 827710],Ki,[2]; read-out: D3K1,0.031 µM
O=C(NCCCCN1CCN(c2csc3cc(C(F)(F)F)ccc23)CC1)c1cccs1 [compound 811708],Ki,[2]; read-out: D3K1,0.00577 µM
CC1(C)C(CNC(=O)c2cccc(C#N)c2)C1CN1CCN(c2csc3cc(C(F)(F)F)ccc23)CC1 (stereo not shown) [compound 826280],Ki,[2]; read-out: D3K1,0.116 µM
O=C(NCCCCN1CCCN(c2csc3cc(F)ccc23)CC1)c1ccc2ncccc2c1 [compound 817262],Ki,"[2]; Table 2, read-out: D3K1",0.00189 µM
same,Ki,[2]; [3],0.00189 µM
O=C(NCc1sccc1CN1CCN(c2csc3cc(F)ccc23)CC1)c1cc2ccccc2o1 [compound 826331],Ki,[2]; [5],0.051 µM
O=C(NCCCN1CCCN(c2csc3cc(F)ccc23)CC1)c1cccs1 [compound 827134],Ki,"[2]; Table 2, read-out: D3K1",0.062 µM
same,Ki,[2]; [3],0.062 µM
O=C(NCCCCN1CCN(c2c(Cl)sc3cc(C(F)(F)F)ccc23)CC1)c1ccc(Cl)cc1 [compound 815568],Ki,[2]; read-out: D3K1,0.03 µM
O=C(NCC(CO)CCN1CCN(c2csc3cc(C(F)(F)F)ccc23)CC1)c1ccc2ncccc2c1 (stereo not shown) [818938ES],Ki,"[2]; Table 2, read-out: D3K1",0.141 µM
C[C@@H]1CN(c2csc3cc(C(F)(F)F)ccc23)C[C@H](C)N1CCCCNC(=O)c1cc2ccccc2o1 [compound 826958],Ki,"[2]; the 21st table, read-out: D3 Ki",0.148 µM
O=C(NCCCCN1C2CCC1CC(c1noc3ccccc13)C2)c1ccc(Br)cc1 (stereo not shown) [compound 816536],Ki,[2]; [4],0.14 µM
O=C(NCCCCN1CCN(c2noc3ccsc23)CC1)c1cccc(C(F)(F)F)c1 [compound 829673],Ki,[2]; [9],0.515 µM
NS(=O)(=O)c1ccc(C(=O)NCCCCN2CCCN(c3csc4cc(F)ccc34)CC2)cc1 [compound 817276],Ki,"[2]; Table 2, read-out: D3K1",0.00244 µM
same,Ki,[2]; [3],0.00244 µM
CC1(C)C(CNC(=O)c2cccs2)C1CN1CCN(c2csc3cc(C(F)(F)F)ccc23)CC1 (stereo not shown) [compound 826276],Ki,[2]; read-out: D3K1,0.058 µM
CCCCOc1ccc(C(=O)NCCCCN2C3CCC2CC(c2noc4cc(F)ccc24)C3)cc1 (stereo not shown) [compound 816325],Ki,[2]; [4],0.0583 µM
O=C(NCCCCN1CCN(c2noc3ccsc23)CC1)c1cc2ccccc2[nH]1 [compound 829682],Ki,[2]; [9],0.0189 µM
CC1(C)C(CNC(=O)Cc2ccccc2)C1CN1CCN(c2csc3cc(C(F)(F)F)ccc23)CC1 (stereo not shown) [compound 826281],Ki,[2]; read-out: D3K1,0.0732 µM
CC[C@H]1CC[C@H](NCC2(CCN3CCC(c4noc5ccsc45)CC3)CC2)CC1 [compound 832401],Ki,"[2]; the 23rd table, read-out: D3 Ki",0.124 µM
